# Data: publication PMC7914897, “Cytotoxic Potential of a-Azepano- and 3-Amino-3,4-SeCo-Triterpenoids” (International Journal of Molecular Sciences, 2021)
# Like-named read-outs stand apart in the source and are kept apart here.
# Legend:
# LOX IMVI (Melanoma) = test: NCI-60 screen (SRB, 48 h); assay type: cell-based; conditions: Homo sapiens
# BT-549 (Breast cancer) = test: NCI-60 screen (SRB, 48 h); assay type: cell-based; conditions: Homo sapiens
# Leukemia subpanel = test: cells; conditions: Homo sapiens
# OVCAR-3 (Ovarian cancer) = test: cells; conditions: Homo sapiens
# Colon Cancer subpanel = test: NCI-60 screen, subpanel; conditions: Homo sapiens
# Melanoma subpanel = test: NCI-60 screen, subpanel; conditions: Homo sapiens
# Prostate cancer subpanel = test: NCI-60 screen, subpanel; conditions: Homo sapiens
# Breast cancer subpanel = test: NCI-60 screen, subpanel; conditions: Homo sapiens
# CCRF-CEM (Leukemia) = test: NCI-60 screen (SRB, 48 h); conditions: Homo sapiens
# K-562 (Leukemia) = test: NCI-60 screen (SRB, 48 h); conditions: Homo sapiens
# RPMI-8226 (Leukemia) = test: NCI-60 screen (SRB, 48 h); conditions: Homo sapiens
# [1] = test system: A549/ATCC (NSC lung cancer); test: NCI-60 screen (SRB, 48 h); conditions: Homo sapiens
# [2] = test system: NCI-H23 (NSC lung cancer); test: NCI-60 screen (SRB, 48 h); conditions: Homo sapiens
# [3] = test system: NCI-H322M (NSC lung cancer); test: NCI-60 screen (SRB, 48 h); conditions: Homo sapiens
# HCT-15 (Colon cancer) = test: NCI-60 screen (SRB, 48 h); conditions: Homo sapiens
# HT29 (Colon cancer) = test: NCI-60 screen (SRB, 48 h); conditions: Homo sapiens
# U251 (CNS cancer) = test: NCI-60 screen (SRB, 48 h)
# SK-MEL-2 (Melanoma) = test: NCI-60 screen (SRB, 48 h); conditions: Homo sapiens
# SK-MEL-28 (Melanoma) = test: NCI-60 screen (SRB, 48 h)
# UACC-257 (Melanoma) = test: NCI-60 screen (SRB, 48 h); conditions: Homo sapiens
# IGROV1 (Ovarian cancer) = test: NCI-60 screen (SRB, 48 h); conditions: Homo sapiens
# [4] = test system: NCI/ADR-RES (Ovarian cancer); test: NCI-60 screen (SRB, 48 h); conditions: Homo sapiens
# SN12C (Renal cancer) = test: NCI-60 screen (SRB, 48 h); conditions: Homo sapiens
# UO-31 (Renal cancer) = test: NCI-60 screen (SRB, 48 h); conditions: Homo sapiens
# DU-145 (Prostate cancer) = test: NCI-60 screen (SRB, 48 h); conditions: Homo sapiens
# [5] = test system: MDA-MB-31/ATCC (Breast cancer); test: NCI-60 screen (SRB, 48 h); conditions: Homo sapiens
# HS 578T (Breast cancer) = test: NCI-60 screen (SRB, 48 h); conditions: Homo sapiens
# [6] = test system: panel of approximately 60 cancer cell lines; test: NCI-60 screen (SRB, 48 h), full panel
compound,measurement,setting,value
"C[C@H]1[C@H](C)CC[C@]2(CO)CC[C@]3(C)C(=CC[C@@H]4[C@@]5(C)CCCNC(C)(C)[C@@H]5CC[C@]43C)[C@H]12 [Compound 4, azepanouvaol]",GI50,LOX IMVI (Melanoma),1.59 µM
same,IC (TGI),LOX IMVI (Melanoma); 48 h,3.05 µM
same,activity at 10 µM,"LOX IMVI (Melanoma); 48 h, 1 dose 10 µM, read-out: Growth % of the Most Sensitive Cell Lines",-94.9%
same,CC50,LOX IMVI (Melanoma); read-out: LC50 (the source's name),5.84 µM
same,GI50,BT-549 (Breast cancer); BT-549,1.55 µM
same,IC (TGI),"BT-549 (Breast cancer); BT-549, 48 h",2.96 µM
same,IC (TGI),"Leukemia subpanel; 48 h, read-out: TGI MG_MID",3.28 µM
same,GI50,Leukemia subpanel; read-out: GI50 MG_MID,1.32 µM
same,CC50,Leukemia subpanel; read-out: LC50 MG_MID,8.02 µM
same,GI50,OVCAR-3 (Ovarian cancer); OVCAR-3,1.83 µM
same,IC (TGI),"OVCAR-3 (Ovarian cancer); OVCAR-3, 48 h, read-out: TGI",3.42 µM
same,CC50,"OVCAR-3 (Ovarian cancer); OVCAR-3, read-out: LC50",6.39 µM
same,IC (TGI),"Colon Cancer subpanel; 48 h, read-out: TGI MG_MID",3.07 µM
same,GI50,Colon Cancer subpanel; read-out: GI50 MG_MID,1.52 µM
same,CC50,Colon Cancer subpanel; read-out: LC50 MG_MID,6.16 µM
same,IC (TGI),"Melanoma subpanel; 48 h, read-out: TGI MG_MID",3.32 µM
same,GI50,Melanoma subpanel; read-out: GI50 MG_MID,1.74 µM
same,CC50,Melanoma subpanel; read-out: LC50 MG_MID,6.36 µM
same,IC (TGI),"Prostate cancer subpanel; 48 h, read-out: TGI MG_MID",3.06 µM
same,GI50,Prostate cancer subpanel; read-out: GI50 MG_MID,1.64 µM
same,CC50,Prostate cancer subpanel; read-out: LC50 MG_MID,5.7 µM
same,IC (TGI),"Breast cancer subpanel; 48 h, read-out: TGI MG_MID",3.69 µM
same,GI50,Breast cancer subpanel; read-out: GI50 MG_MID,1.74 µM
same,CC50,Breast cancer subpanel; read-out: LC50 MG_MID,12.6 µM
same,GI50,CCRF-CEM (Leukemia),1.74 µM
same,IC (TGI),"CCRF-CEM (Leukemia); 48 h, read-out: TGI",3.93 µM
same,CC50,CCRF-CEM (Leukemia); read-out: LC50,8.88 µM
same,GI50,K-562 (Leukemia); K562,0.47 µM
same,IC (TGI),"K-562 (Leukemia); K562, 48 h, read-out: TGI",2.02 µM
same,CC50,"K-562 (Leukemia); K562, read-out: LC50",6.68 µM
same,GI50,RPMI-8226 (Leukemia); RPMI-8226,1.85 µM
same,IC (TGI),"RPMI-8226 (Leukemia); RPMI-8226, 48 h, read-out: TGI",4.15 µM
same,CC50,"RPMI-8226 (Leukemia); RPMI-8226, read-out: LC50",9.27 µM
same,GI50,[1]; A549,1.74 µM
same,IC (TGI),"[1]; A549, 48 h, read-out: TGI",3.28 µM
same,CC50,"[1]; A549, read-out: LC50",6.16 µM
same,GI50,[2]; NCI-H23,1.65 µM
same,IC (TGI),"[2]; NCI-H23, 48 h, read-out: TGI",3.26 µM
same,CC50,"[2]; NCI-H23, read-out: LC50",6.47 µM
same,GI50,[3],1.73 µM
same,IC (TGI),"[3]; 48 h, read-out: TGI",3.19 µM
same,CC50,[3]; read-out: LC50,5.89 µM
same,GI50,HCT-15 (Colon cancer); HCT-15,1.39 µM
same,IC (TGI),"HCT-15 (Colon cancer); HCT-15, 48 h, read-out: TGI",2.75 µM
same,CC50,"HCT-15 (Colon cancer); HCT-15, read-out: LC50",5.52 µM
same,GI50,HT29 (Colon cancer); HT-29,0.63 µM
same,IC (TGI),"HT29 (Colon cancer); HT-29, 48 h, read-out: TGI",1.97 µM
same,CC50,"HT29 (Colon cancer); HT-29, read-out: LC50",4.85 µM
same,GI50,"U251 (CNS cancer); Homo sapiens, U-251",1.67 µM
same,IC (TGI),"U251 (CNS cancer); Homo sapiens, U-251, 48 h, read-out: TGI",3.15 µM
same,CC50,"U251 (CNS cancer); Homo sapiens, U-251, read-out: LC50",5.94 µM
same,Growth % of the Most Sensitive Cell Lines,"U251 (CNS cancer); U251, 1 dose 10 µM",−83.30%
same,GI50,SK-MEL-2 (Melanoma); SK-MEL-2,1.9 µM
same,IC (TGI),"SK-MEL-2 (Melanoma); SK-MEL-2, 48 h, read-out: TGI",3.63 µM
same,CC50,"SK-MEL-2 (Melanoma); SK-MEL-2, read-out: LC50",6.91 µM
same,GI50,"SK-MEL-28 (Melanoma); Homo sapiens, SK-MEL-28",1.75 µM
same,IC (TGI),"SK-MEL-28 (Melanoma); Homo sapiens, SK-MEL-28, 48 h, read-out: TGI",3.3 µM
same,CC50,"SK-MEL-28 (Melanoma); Homo sapiens, SK-MEL-28, read-out: LC50",6.22 µM
same,Growth % of the Most Sensitive Cell Lines,"SK-MEL-28 (Melanoma); SK-MEL-28, 1 dose 10 µM",−84.86%
same,GI50,UACC-257 (Melanoma); UACC-257,1.95 µM
same,IC (TGI),"UACC-257 (Melanoma); UACC-257, 48 h, read-out: TGI",3.7 µM
same,CC50,"UACC-257 (Melanoma); UACC-257, read-out: LC50",7.01 µM
same,GI50,IGROV1 (Ovarian cancer); IGROV-1,1.85 µM
same,IC (TGI),"IGROV1 (Ovarian cancer); IGROV-1, 48 h, read-out: TGI",3.72 µM
same,CC50,"IGROV1 (Ovarian cancer); IGROV-1, read-out: LC50",7.45 µM
same,GI50,[4],1.76 µM
same,IC (TGI),"[4]; 48 h, read-out: TGI",3.47 µM
same,CC50,[4]; read-out: LC50,6.84 µM
same,GI50,SN12C (Renal cancer),1.64 µM
same,IC (TGI),"SN12C (Renal cancer); 48 h, read-out: TGI",3.11 µM
same,CC50,SN12C (Renal cancer); read-out: LC50,5.87 µM
same,GI50,UO-31 (Renal cancer); UO-31,1.54 µM
same,IC (TGI),"UO-31 (Renal cancer); UO-31, 48 h, read-out: TGI",2.99 µM
same,CC50,"UO-31 (Renal cancer); UO-31, read-out: LC50",5.79 µM
same,GI50,DU-145 (Prostate cancer); DU-145,1.72 µM
same,IC (TGI),"DU-145 (Prostate cancer); DU-145, 48 h, read-out: TGI",3.14 µM
same,CC50,"DU-145 (Prostate cancer); DU-145, read-out: LC50",5.75 µM
same,GI50,[5],1.88 µM
same,IC (TGI),"[5]; 48 h, read-out: TGI",3.48 µM
same,CC50,[5]; read-out: LC50,6.43 µM
same,GI50,HS 578T (Breast cancer),2.05 µM
same,IC (TGI),"HS 578T (Breast cancer); 48 h, read-out: TGI",4.86 µM
same,CC50,HS 578T (Breast cancer); read-out: LC50,32.6 µM
same,Positive Cytostatic Effect (cell lines with percent growth 0 to 50 / total),[6]; 1 dose 10 µM,18/59
same,Positive Cytotoxic Effect (cell lines with percent growth < 0 / total),[6]; 1 dose 10 µM,40/59
same,number of cancer cell lines the compound was active against,[6]; 1 dose 10 µM,57 cell lines
same,activity at 10 µM,"[6]; Homo sapiens, 48 h, read-out: Mean Growth, %",-31.9%
same,activity at 10 µM,"[6]; Homo sapiens, 48 h, read-out: Range of Growth, %",-99 to 23%
same,IC (TGI),"[6]; Homo sapiens, 48 h, read-out: TGI MG_MID60, average over all cell lines",3.31 µM
same,GI50,"[6]; Homo sapiens, read-out: GI50 MG_MID60",1.65 µM
same,GI50,"[6]; Homo sapiens, read-out: GI50 against all human tumor cell lines",< 3 µM
same,GI50,"[6]; Homo sapiens, read-out: GI50 against the most sensitive cell lines",0.2 to 0.94 µM
same,CC50,"[6]; Homo sapiens, read-out: LC50 MG_MID60, average over all cell lines",7.64 µM
